The record followed here is PMC6832134, “Discovery of Novel Integrase Inhibitors Acting outside the Active Site Through High-Throughput Screening” (Molecules, 2019).

One assay deals with T1, HIV-1 integrase (Human immunodeficiency virus type 1 group M subtype B, UniProt P12497).
T1 construct: 250 nM of recombinant HIV-1 integrase; made in house; host or cells: E. coli RosettaII
As to the kind of experiment: Electrochemiluminescent integrase strand transfer assay (BioVeris), high-throughput screen. The format is biochemical. As to conditions: single dose 10 µM; read-out: inhibition of IN ST activity. As to the method: To enable a high-throughput screening, we used the ST assay developed by BioVeris. This proprietary plate-based assay measured stand transfer using electrochemiluminescent technology. First, we validated the assay using HIV-1 IN in the presence of DMSO, or increasing concentrations of a known inhibitor, MA-DKA (also known as 118-D-24, Figure 1A). […] Next, we used MA-DKA as a control in every test plate and screened a large library of molecules. Overall, 3095 compounds were tested as part of the NCI Developmental Therapeutics Program’s small molecule plated sets from the Open Chemical Repository Collection. […] A single dose testing (10 µM) enabled the identification of 130 molecules that inhibited ST by over 50% (light dashed line, Figure 1A). […] NSC153308 is a 2-phenacylsulfanylacetic acid that resembles the diketo acid chemotype. On the other side, NSC119889 is a xanthene derivative similar to V-165 [6]. […] However, the purpose of this study was to identify a new chemotype that might act on IN via a novel mechanism, distinct from known active site inhibitors. Accordingly, we retrieved the chemical structure of the 130 hits and looked for a chemical pattern different from that of conventional strand transfer inhibitors.
This electrochemiluminescent plate-based assay was performed using a BioVeris M-SERIES Analyzer (Gaithersburg, MD, USA). DNA substrates were obtained from BioVeris and used according to the manufacturer’s recommendations. Briefly, a biotinylated donor DNA was incubated for 30 min at 37 °C in the presence of 250 nM of recombinant HIV-1 integrase. Complexes were bound to paramagnetic streptavidin-coated beads (M-280 Dynabeads). After addition of the drug, the integration reaction was initiated by addition of a ruthenium-labeled target DNA. The reaction was carried out for 60 min at 37 °C, before reading on the BioVeris M-SERIES Analyzer.

The next assay has as its target T2, IN-DNA binding (Human immunodeficiency virus type 1 group M subtype B, UniProt P12497).
T2 construct: 250 nM of recombinant HIV-1 integrase; made in house; host or cells: E. coli RosettaII
As to the kind of experiment: IN-DNA binding by fluorescence anisotropy. On the set-up: species or system HIV-1. From the text: Although the CCD alone harbors all of the structural determinants of the active site to support the catalytic activity, the NTD and CTD have been implicated in both the quaternary architecture of the enzyme and DNA binding. Because outer domains (NTD and/or CTD) appeared important in the inhibition of IN by NSC34931, we wondered if stilbene disulfonic acid derivatives might compete with DNA binding. To test whether NSC34931 competed with substrate binding, we developed a plate-based assay with a fluorescent DNA substrate.
In addition, controls with DMSO (0 µM) or without IN (DNA only) were included. Data represent the mean of three independent experiments.
DNA binding was measured using a plate-based assay as previously described. […] Compounds or DMSO were incubated at room temperature for 5 min in the IN-activity buffer, in the absence or the presence of IN (400 nM). After addition of the DNA (10 nM), fluorescence anisotropy was measured every 30 s for 30 min using an Envision plate reader (Perkin Elmer, Waltham, MA, USA).

Assay [1] has as its target T3, isolated C-terminal domain (CTD) (220–288) (Human immunodeficiency virus type 1 group M subtype B, UniProt P12497).
T3 construct: the isolated C-terminal domain (CTD) (220–288); made in house; host or cells: E. coli RosettaII
Nature of the assay: Schiff base IN-DNA crosslinking assay, isolated CTD. The format is binding, HIV-1. From the text: To gain further evidence that NSC34931 interferes with DNA binding, and to determine the role of outer domains in this inhibition, we evaluated the ability of NSC34931 to inhibit the formation of IN-DNA crosslinks using our previously described Schiff base assay. Briefly, a deoxyuracyl nucleotide is incorporated in the DNA substrate to generate an abasic site via uracyl DNA glycosylase. IN forms a covalent complex (Schiff base), which can be stabilized by reduction with sodium borohydride (Figure 5A). Full-length IN, but also the isolated CCD or CTD domains, can crosslink DNA ([…]). Consistent with anisotropy data, NSC34931 suppresses the formation of IN-DNA crosslinks in the context of the full-length IN (Figure 5B, upper gel). Of note, the effective dose to inhibit this reaction is similar to that needed to inhibit 3′-P or ST (about 0.45 µM). In contrast, the IN CCD requires a 10 times higher concentration of compound to prevent DNA crosslinking, confirming that the NTD or the CTD are important for NSC34931 inhibition. Lastly, the same experiment was conducted with the isolated CTD (Figure 5B, lower gel).
Figure 5 Inhibition of IN-DNA binding by NSC34931. (A) Principle of the Schiff base crosslinking assay. An abasic site was introduced by uracil DNA glycosylase in the DNA substrate at the -12 position. […]

For `O=S(=O)(O)c1cc(/N=N/c2cc(S(=O)(=O)O)c3ccccc3c2O)ccc1/C=C/c1ccc(/N=N/c2cc(S(=O)(=O)O)c3ccccc3c2O)cc1S(=O)(=O)O` [NSC34931], the inhibition at 10 µM at HIV-1 integrase amounted to 77.8%. At IN-DNA binding, the “fold lower concentration for IN-DNA binding inhibition than for inhibition of 3'-P and ST” value is recorded as “about 10”. Further, the “concentration giving full inhibition of IN-DNA binding” value on IN-DNA binding (fluorescence anisotropy) turned out to be 51 nM. On IN-DNA binding (fluorescence anisotropy over 30 min), the “effect on IN substrate (DNA) binding” value is “strongly and durably prevented IN-DNA binding”. In addition, the “inhibition of CTD-DNA crosslinks” value in assay [1] was “in the same concentration range than in the context of the full-length enzyme”.
